Results on seven compounds are retold here after patent publication US7230131B2, “Carnitine-magnesium hydroxycitrate” (Lonza AG, priority 2000, dated 2007).

Read-outs that look alike come from different tables or passages of the source.

One data set deals with T1, citrate lyase (Homo sapiens, UniProt P53396).
T1 sequence (P53396 1-1101): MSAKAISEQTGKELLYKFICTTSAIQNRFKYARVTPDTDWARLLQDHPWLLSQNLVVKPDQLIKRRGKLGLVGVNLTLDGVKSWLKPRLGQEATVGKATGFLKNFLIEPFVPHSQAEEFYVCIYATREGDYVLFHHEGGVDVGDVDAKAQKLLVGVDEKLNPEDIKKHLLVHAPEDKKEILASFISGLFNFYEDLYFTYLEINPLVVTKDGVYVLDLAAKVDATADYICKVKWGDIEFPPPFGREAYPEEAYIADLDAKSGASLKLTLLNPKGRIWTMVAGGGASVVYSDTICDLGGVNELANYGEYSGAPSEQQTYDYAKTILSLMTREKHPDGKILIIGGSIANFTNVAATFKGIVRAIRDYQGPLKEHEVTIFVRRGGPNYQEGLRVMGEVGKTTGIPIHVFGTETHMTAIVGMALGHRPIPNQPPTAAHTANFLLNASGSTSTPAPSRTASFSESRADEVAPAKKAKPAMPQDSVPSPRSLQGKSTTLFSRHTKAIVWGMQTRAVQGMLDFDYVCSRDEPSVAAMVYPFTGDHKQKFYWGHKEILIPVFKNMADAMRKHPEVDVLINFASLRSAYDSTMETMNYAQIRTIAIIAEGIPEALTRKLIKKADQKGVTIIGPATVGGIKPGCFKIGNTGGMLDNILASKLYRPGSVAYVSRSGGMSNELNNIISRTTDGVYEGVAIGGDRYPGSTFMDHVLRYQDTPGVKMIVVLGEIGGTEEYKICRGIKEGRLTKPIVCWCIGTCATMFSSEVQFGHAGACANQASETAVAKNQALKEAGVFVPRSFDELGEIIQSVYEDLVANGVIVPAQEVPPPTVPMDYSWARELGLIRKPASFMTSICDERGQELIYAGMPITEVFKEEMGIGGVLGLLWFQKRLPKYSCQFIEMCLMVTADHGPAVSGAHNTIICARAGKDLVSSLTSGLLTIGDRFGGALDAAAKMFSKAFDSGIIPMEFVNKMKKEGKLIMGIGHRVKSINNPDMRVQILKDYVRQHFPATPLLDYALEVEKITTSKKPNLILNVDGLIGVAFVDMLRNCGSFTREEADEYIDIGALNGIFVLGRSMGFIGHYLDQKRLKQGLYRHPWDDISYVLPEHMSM
The following applies: cited from earlier work.

Data set [1] in a line: Hygroscopicity test: gravimetric moisture uptake on storage at 56% relative humidity, 25° C. Format: physicochemical. The following applies: for moisture uptake: previously dried to constant weight; for weight gain (moisture uptake from the air): 25° C., granulated <0.8 mm, previously dried over phosphorus pentoxide, based on total sample weight, Citrate. An excerpt: In a preferred embodiment, L-carnitine, magnesium hydroxide and citric acid are mixed in stoichiometric amounts, i.e. in a molar ratio of approximately 1:1:1. The types of these substances are preferably sufficiently pure, i.e. approved for the manufacture of food products or the preparation of pharmaceuticals, as are described, for example, in the European Pharmacopoeia. Anhydrous types are expediently used. To avoid an unwanted salt loading, the pure L-carnitine is preferably added to the mixture as neutral […] salt. Compared with previous methods of preparation, the hygroscopicity of the complex salt L-carnitine-magnesium citrate prepared in this way is reduced further. For example, the moisture uptake, determined by gravimetry in the way familiar to the skilled worker, of solid carnitine-Mg citrate prepared by the method of the invention and previously dried to constant weight under oil-pump vacuum or over phosphorus pentoxide is not more than 7% by weight after 48 h at 56% relative humidity (rH). This figure is not exceeded even after storage for 330 h. Based on the amount of carnitine or carnitine derivative present in the mixture, referred to within the scope of the invention as carnitine content based on free base, this corresponds to a moisture uptake of not more than 40% by weight. It is preferred for at least 80% of the carnitine-Mg citrate, based on the carnitine content in the mixture, to be in the form of complex salt in the mixture of the invention.
The product mixtures from example 1 and 2 granulated to a particle size of <0.8 mm using a FREEWIT screening granulator are stored at a relative humidity of 56% at 25° C. under constant test conditions for the stated times. The sample was previously dried to constant weight over phosphorus pentoxide. The moisture uptake from the air is determined by gravimetry. The weight gain is stated in percent based on the total weight of the sample.

For data set [2] the following is noted: relative humidity 56%, storage for 1 week; cited from earlier work.
The nature of data set [3]: Weight gain of previously dried mixture under standard conditions. It counts as physicochemical. Particulars: after 24 h under standard conditions. The protocol: The weight gain of the mixture of the invention which had previously been dried was, after 24 h under standard conditions, 0.82% by weight. At a relative humidity of 56%, the water uptake of the mixture determined by gravimetry was ≦10% by weight after 30 h, corresponding to about 30% by weight based on the carnitine content of the mixture.

Data set [4] in a line: Storage stability in relation to rearrangement of HCA to the lactone, standard test conditions. Format: physicochemical. The following applies: compared with known HCA salts; standard test conditions customary in the pharmaceutical sector. The text has this: The present invention further relates to carnitine-magnesium hydroxycitrate. This is a salt of low hygroscopicity and can be prepared by the present method through mixing magnesium hydroxide, hydroxycitric acid and carnitine or alkanoyl carnitine in the molar ratio 1:1:1. It is a neutral salt in the stoichiometric composition, in relation to the charge distribution and the ionizable functional groups. […] This involves a synergistic effect of the mixture in the form of a complex salt. Without wishing to be bound to the theory, it is possible that this effect is brought about by a better bioavailability of the complex salt. HCA is prone to spontaneous lactonization in aqueous solution and in the gastrointestinal tract. The complexation with Mg before preparation of a solution might have a stabilizing effect in relation to the unwanted rearrangement of the lactone and thus bring about much greater activity in cooperation with carnitine. […] It is also possible that a previously unrecognized stimulating effect in particular of magnesium, in the sense of that stated above concerning the mechanism of action of carnitine and hydroxycitrate, is involved. Allosterically regulated enzymes are often regulated by various factors such as, for example, also Mg cations. Magnesium is moreover an important cofactor for various enzymes or constituent of the holo enzyme. […]

The mark [5] stands for this setting: storage time 4 h, 56% relative humidity.
Where [6] appears, read: storage time 8 h, 56% relative humidity.
The mark [7] stands for this setting: storage time 24 h, 56% relative humidity.
Where [8] appears, read: storage time 36 h, 56% relative humidity.
[9] abbreviates: storage time 48 h, 56% relative humidity.
[10] abbreviates: storage time 336 h, 56% relative humidity.

Turning to `O=C(O)CC(O)(C(=O)O)C(O)C(=O)O` (stereo not shown) [HCA, Hydroxycitric acid], the “affinity of the enzyme relative to natural substrate citric acid” value at citrate lyase (fold higher than for citric acid) is “more than 100 times”.

`C[N+](C)(C)C[C@H](O)CC(=O)[O-].O=C([O-])CC(O)(CC(=O)[O-])C(=O)[O-].O=C([O-])CC(O)(CC(=O)[O-])C(=O)[O-].[Mg+2].[Mg+2].[Mg+2]` [carnitine-Mg citrate, L-carnitine-magnesium citrate]: in data set [1] (56% relative humidity, based on amount of carnitine in the mixture), the “moisture uptake based on carnitine content (free base)” value is “not more than 40 % by weight”. For the same compound, the moisture uptake result in data set [1] (after 48 h at 56% relative humidity) and in data set [1] (after storage for 330 h at 56% relative humidity) was “not more than 7 % by weight” in each case.

On to `C[N+](C)(C)C[C@H](O)CC(=O)[O-].O=C([O-])CC(O)(CC(=O)[O-])C(=O)[O-].O=C([O-])CC(O)(CC(=O)[O-])C(=O)[O-].[Mg+2].[Mg+2].[Mg+2]` [example 1, L-Carnitine-Magnesium Citrate], for which the “weight gain (moisture uptake from the air)” value in data set [1] (setting [5]) is reported as 2.0 % by weight; in data set [1] (setting [6]) it was 2.2 % by weight; in data set [1] (setting [7]), 4.6 % by weight; in data set [1] (setting [8]) it was 4.4 % by weight; in data set [1] (setting [9]), 5.2 % by weight; in data set [1] (setting [10]), 5.1 % by weight.

Take `C[N+](C)(C)C[C@H](O)CC(=O)[O-].O=C([O-])CC(O)(CC(=O)[O-])C(=O)[O-].O=C([O-])CC(O)(CC(=O)[O-])C(=O)[O-].[Mg+2].[Mg+2].[Mg+2]` [example 2, L-Carnitine-Magnesium Citrate]: the “weight gain (moisture uptake from the air)” value in data set [1] (setting [5]) came out at 2.7 % by weight; in data set [1] (setting [6]), 3.0 % by weight; in data set [1] (setting [7]), 5.4 % by weight; in data set [1] (setting [8]), 5.5 % by weight; in data set [1] (setting [9]) it was 6.4 % by weight; in data set [1] (setting [10]), 6.5 % by weight.

Regarding `O=C1C[C@@](O)(C(=O)O)[C@@H](C(=O)O)O1` [lactone derivative], the “affinity of the enzyme compared with HCA” value at citrate lyase (by comparison with HCA) is on record as “clear lower affinity”.

For the compound `C[N+](C)(C)C[C@H](O)CC(=O)[O-].O=C([O-])CC(O)(CC(=O)[O-])C(=O)[O-].O=C([O-])CC(O)(CC(=O)[O-])C(=O)[O-].[Mg+2].[Mg+2].[Mg+2]` [reference, L-carnitine-magnesium citrate, reference compound], the “weight gain (moisture uptake from the air)” value in data set [1] (setting [5]) amounted to 5.1 % by weight; in data set [1] (setting [6]), 9.1 % by weight; in data set [1] (setting [7]), 18.1 % by weight; in data set [1] (setting [8]), 17.6 % by weight; in data set [1] (setting [9]), 20.4 % by weight; in data set [1] (setting [10]) it was 15.6 % by weight. Further, the water uptake in data set [2] is on record as 21 % by weight.

With “L-Carnitine-Magnesium (−)-Hydroxycitrate [Example 4]”, in data set [1] (after 30 h at relative humidity 56%), the “water uptake based on the carnitine content of the mixture” value was “about 30 % by weight”. This compound registered a water uptake in data set [1] (after 30 h at relative humidity 56%, gravimetry) of at most 10 % by weight. Besides, in data set [3], the weight gain worked out at 0.82 % by weight. Moreover, the “storage stability in relation to rearrangement of HCA to the lactone” value in data set [4] is on record as “improved storage stability”.
